This series can be described thus: Human HepG2 cell viability assay in 384 well format. The format is toxicity, cell-based. Further details: dose 125 nL, time 70.5 hour; cytotoxicity at 70.5 h: concentration not given beside the values. As to conditions: HepG2 cells, read-out: Inhibition.
For `O=C([C@H]1CCS(=O)(=O)[C@@H]2CN(Cc3ccc(F)cc3)C[C@H]12)N1CCCC1`, the cytotoxicity at 70.5 h was -4.67%.
The figure for `O=C(C1CC=CC1)N1CC[C@@H]2O[C@H](COCC3CCOCC3)CC[C@@H]21` is -6.77%; for `CC(=O)N1CC(c2ncn(C(C)C)n2)c2cc(C(=O)NC3CC3)ccc21` (stereo not drawn) it is 14.1%; for `COc1cccc(N2CC3(CCN(c4cnccn4)C3)CC2=O)c1` (stereo not drawn) it is 13.8%.
The same measure for `Cn1c2c(c(=O)n1C)CN(C(=O)c1ccco1)CCC2`: 12.8%.
The same measure for `COCCN1CCCC12CCCN(c1ncccn1)C2` (stereo not drawn): -2.34%; for `Cn1c2c(c(=O)n1C)CN(C(=O)c1ccsc1)CCC2`: -0.418%.
On to `O=C(c1cscn1)N1CCC2(CC1)CCN(S(=O)(=O)c1ccccc1)C2`, for which the cytotoxicity at 70.5 h was -8.17%.
The figure for `CC(=O)N1CC(c2ncn(C(C)C)n2)c2cc(C(=O)NC(C)C)ccc21` (stereo not drawn) is -4.9%.
As for `O=C(c1cscn1)N1CCC2(CCN(S(=O)(=O)c3ccccc3)C2)C1` (stereo not drawn), the cytotoxicity at 70.5 h is -17.7%.
The same measure for `COCCN1CCCC12CCCN(c1nncs1)C2` (stereo not drawn): -8.64%; for `FC1(F)CCN(c2ccccc2)CC12CCN(c1ncccn1)C2` (stereo not drawn): -1.34%.
The same measure for `CCc1ncnc2c1CCN(c1ncc(F)cn1)CC2`: -7.64%.
The same measure for `O=C(Cc1ccsc1)N1CCc2ccc(=O)n(CC3CC3)c2CC1`: -3.62%; for `Cn1nc(CN2CCOCC2)c2c1CN(C(=O)c1ccc[nH]1)C2`: 0.563%.
As to `CCS(=O)(=O)N1CCn2c(COCC3CCOCC3)cnc2C1C` (stereo not drawn), the cytotoxicity at 70.5 h was -5.13%.
The same measure for `CCOCc1cncc2c1CCN(S(=O)(=O)c1ccccc1)C2`: -3.1%; for `CCCS(=O)(=O)N1C[C@@H]2COC[C@@H](Cc3nc(C)no3)[C@@H]2C1`: -1.7%.
As to `O=C(c1ccc[nH]1)N1CC2(CCN(c3ncccn3)C2)C1`, the cytotoxicity at 70.5 h worked out at 1.3%.
For `CC(C)CC(=O)N1CCN(C(=O)NC(C)C)CC2(CC(=O)N(C)C2)C1` (stereo not drawn), the cytotoxicity at 70.5 h was -18.5%.
The same measure for `O=C(C1CCOCC1)N1CCO[C@@H]2[C@@H](OCc3ccncc3)CC[C@@H]21`: -22.7%; for `CCS(=O)(=O)N1CCC2(CC1)CN(c1cncnc1)C(=O)CO2`: -15.9%.
Turning to `Cc1cccc(C(=O)N2CC[C@H]3C[C@@H](C)O[C@@H]3C2)n1`, the cytotoxicity at 70.5 h is -19.7%.
The same measure for `O=C(C1CCOCC1)N1CCO[C@H]2[C@H](OCC3CC3)CC[C@@H]21`: 2.42%; for `COCC(=O)N1CCN(C(=O)NC(C)C)CC2(CC(=O)N(C)C2)C1` (stereo not drawn): 9.18%; for `Cc1noc([C@H]2CC[C@@H]3[C@@H](CCN3S(=O)(=O)C3CC3)O2)n1`: -3.57%.
As to `COCC1COCCC12CCN(C(=O)CC1Cc3ccccc3C1)CC2` (stereo not drawn), the cytotoxicity at 70.5 h turned out to be 0.913%.
The same measure for `COCC1CN(C(=O)Cc2cccs2)Cc2nnn(CC3CC3)c21` (stereo not drawn): 2.3%.
The same measure for `Cc1oncc1C(=O)N1CC[C@H]2[C@H]1CCN2Cc1ccccn1`: -3.13%; for `COCC1COCCC12CCN(C(=O)Cc1ccc(F)cc1)CC2` (stereo not drawn): -16.1%.
The figure for `O=C(c1cccs1)N1CCN(CC2CC2)c2ncccc2C1` is -21%; for `Cc1noc([C@H]2COC[C@H]3CN(C(=O)Cc4ccsc4)C[C@H]32)n1` it is -20.1%; for `Cc1noc([C@H]2COC[C@H]3CN(C(=O)Cc4cccs4)C[C@H]32)n1` it is -12.6%.
As to `c1nc(N2CCOCC2)nc2c1COCC21CCN(CC2CC2)C1` (stereo not drawn), the cytotoxicity at 70.5 h is -6.25%.
The figure for `CCn1nnc2c1C(COC)CN(C(=O)Cc1ccccn1)C2` (stereo not drawn) is -15.3%; for `O=C(C[C@@H]1COC[C@H]2CN(Cc3ccncc3)C[C@@H]12)N1CCCC1` it is 11.8%.
Take `CCC(CC)C(=O)N1CCc2nc(N3CCCC3)nc(C)c2CC1`: the cytotoxicity at 70.5 h is -12.2%.
The same measure for `Cc1nc(N2CCCC2)nc2c1CCN(C(=O)CC1CCCC1)CC2`: -9.31%; for `CN1CCC2(CC1)C(=O)N(c1cccnc1)c1ccc(F)cc12`: -0.57%; for `O=C(NC1CCC1)[C@H]1CCS(=O)(=O)[C@@H]2CN(CCc3ccccc3)C[C@H]12`: 0.419%.
On to `CN(C)C(=O)CN1CCCC12CCCN(c1ncc(F)cn1)C2` (stereo not drawn), for which the cytotoxicity at 70.5 h was -4.71%.
On to `Cc1noc(C)c1CN1CCc2ncc(Cn3cccn3)n2CC1`, for which the cytotoxicity at 70.5 h is -5.78%.
The figure for `Cn1cc(C(=O)N2CC[C@@H]3[C@@H]2CCN3c2ncc(F)cn2)cn1` is -5.7%; for `CN1CCN(c2ccc3ccc(C(=O)N4CCCCO4)cn23)CC1` it is -6.94%.
Regarding `COCCN1CCC2(CC1)CC1(CCN(S(C)(=O)=O)CC1)N(C)C2=O`, the cytotoxicity at 70.5 h was -7.2%.
With `CCCS(=O)(=O)N1C[C@@H]2COC[C@]2(CN2CCOCC2)C1`, the cytotoxicity at 70.5 h was -10.5%.
The same measure for `CCc1ccc2c(C3CN(CC4CCC4)C3)ncn2c1`: -6.64%; for `O=C(c1cocn1)N1C[C@@H]2CN(Cc3ccco3)CCO[C@@H]2C1`: -9.1%; for `O=C(c1cc[nH]n1)N1CCC(F)(F)C2(CCN(c3ccccn3)C2)C1` (stereo not drawn): 11%.
The same measure for `COCCN1C[C@@H]2CN(c3cc(OC)ncn3)CCC[C@]2(C(=O)O)C1`: 9.96%.
Consider `O=C(c1c[nH]cn1)N1CCC(F)(F)C2(CCN(c3cnccn3)C2)C1` (stereo not drawn), for which the cytotoxicity at 70.5 h turned out to be 0.139%.
In the case of `O=C(NC1CC1)N1Cc2[nH]nc(COc3cccnc3)c2C1`, the cytotoxicity at 70.5 h is -6.87%.
The figure for `COCCCN1CCCC12CCN(c1ncccn1)CC2` is -5.24%; for `O=C(c1cnccn1)N1CCC(F)(F)C2(CCN(c3ccccn3)C2)C1` (stereo not drawn) it is -8.49%.
For the molecule `CN(C)C(=O)CN1C[C@H]2CCN(Cc3ccccc3)CC[C@H]2S1(=O)=O`, the cytotoxicity at 70.5 h is -8.74%.
The same measure for `CC1c2ncc(COCC3CC3)n2CCN1C` (stereo not drawn): -4.63%.
The figure for `Cc1cnc(N2CCc3c(cnc(C)c3C(=O)O)C2)nc1` is -2.57%; for `Cc1cnc(N2CCc3ncnc(N4CCN(C)CC4)c3CC2)nc1` it is -2.07%; for `CCn1cc2c(n1)CN(S(=O)(=O)c1cn(C)cn1)CC2COC` (stereo not drawn) it is -3.24%.
The figure for `CC(C)N1CCn2c(COCC3CCOCC3)cnc2C1C` (stereo not drawn) is -1.85%.
In the case of `O=S(=O)(C1CC1)N1CCc2ncnc(-c3ccncc3)c2CC1`, the cytotoxicity at 70.5 h is -0.987%.
The same measure for `Cn1ccnc1CN1CCC2(CCCN2c2ncccn2)CC1`: -0.454%; for `CN(C)Cc1nn(C)c2c1CN(C(=O)c1ccc[nH]1)C2`: -0.767%.
On to `FC(F)(F)c1ccnc(N2C[C@H]3CCN(c4cccnc4)C[C@H]3C2)n1`, for which the cytotoxicity at 70.5 h was -17.5%.
`CCN1CC2(CC1=O)CN(Cc1ccsc1)CCN(C(=O)C(C)C)C2` (stereo not drawn): the cytotoxicity at 70.5 h was -15.8%.
The same measure for `CCOCC1CN(CC2CC2)Cc2nn(CC3CC3)cc21` (stereo not drawn): 6.53%; for `CN(C)C(=O)C1OC2(CCNCC2)c2ccccc21` (stereo not drawn): -6.23%.
The figure for `O=C(NC[C@]12COC[C@H]1CN(Cc1nccs1)C2)c1ccsc1` is -3.53%; for `COC1COC2(CCN(Cc3ccc(Cl)cc3)CC2)C1` (stereo not drawn) it is 6.16%; for `COCCN1CCC(c2nc3ccc(NC(C)C)cn3n2)CC1` it is -17.4%.
In the case of `O=C(NCc1cccs1)[C@@H]1CC[C@@H]2[C@@H](CCN2c2ncccn2)O1`, the cytotoxicity at 70.5 h is -19.1%.
The figure for `COC1COC2(CCN(Cc3cccc(Cl)c3)CC2)C1` (stereo not drawn) is -9.84%; for `COC1COC2(CCN(Cc3cccc(C#N)c3)CC2)C1` (stereo not drawn) it is -10.7%; for `O=C(NCc1cccs1)[C@@H]1CC[C@@H]2[C@@H](CCN2C2CCOCC2)O1` it is -14.8%.
Regarding `CC1c2ncc(COc3cccnc3)n2CCN1C(=O)C1=CCCCC1` (stereo not drawn), the cytotoxicity at 70.5 h was -14.2%.
For the molecule `O=C(NCc1ccco1)[C@H]1CC[C@@H]2[C@@H](CCN2C2CCC2)O1`, the cytotoxicity at 70.5 h was -15.1%.
The figure for `COC1COC2(CCN(Cc3ccccc3C)CC2)C1` (stereo not drawn) is -13.2%.
The figure for `Cc1cccc(CN2CCC3(CC2)CN(c2cnn(C)c2)C(=O)CO3)n1` is 41.4%; for `Cc1cnc(N2CC[C@@H](N3CCOCC3)[C@@H]2Cc2ccncc2)nc1` it is -1.98%.
The figure for `CCN(CC)Cc1cnc2n1CCN(Cc1c(C)noc1C)CC2` is 5.41%; for `O=C(O)c1cc2c(nc1-c1cncnc1)CCN(C1CCOC1)CC2` (stereo not drawn) it is 11.3%.
For the molecule `Cc1ccc2c(n1)N(Cc1csc(C)n1)CCN(C1CCOC1)C2` (stereo not drawn), the cytotoxicity at 70.5 h is -5.88%.
`O=C(c1c[nH]cn1)N1CCC(F)(F)C2(CCN(c3ccccn3)C2)C1` (stereo not drawn): the cytotoxicity at 70.5 h was -4.42%.
The figure for `FC1(F)CCNCC12CCN(c1cccnc1)C2` (stereo not drawn) is 13.7%.
On to `CC1c2ncc(COCC3CCOCC3)n2CCN1Cc1cccnc1` (stereo not drawn), for which the cytotoxicity at 70.5 h is -4.06%.
`COCCN(C)C[C@@H]1CCC[C@@H]2CN(Cc3ccc(OC)nc3)C[C@@H]21`: the cytotoxicity at 70.5 h came out at 0.0071%.
In the case of `Cn1cc(CN2CCc3c(cnc(-c4ccccc4)c3C(=O)O)C2)cn1`, the cytotoxicity at 70.5 h is -5.39%.
For the molecule `CCn1ncc2c1C(COCC1CC1)N(Cc1c(C)noc1C)CC2` (stereo not drawn), the cytotoxicity at 70.5 h amounted to 0.596%.
The figure for `Cc1noc(C)c1CN1CCO[C@H]2[C@H](Oc3ncccc3F)CC[C@@H]21` is -9.05%; for `Cc1noc(C)c1CN1CCn2c(CN3CCN(C)CC3)cnc2C1` it is -14.6%; for `CO[C@H]1CCN(C2CCC2)[C@@H]2CN(Cc3ccncc3)C[C@H]12` it is -0.868%.
The figure for `CN1CCn2c(-c3cccc(F)c3)cnc2C12CCN(CC1CC1)CC2` is 4.4%.
The figure for `Cn1cc(CN2C[C@H](Oc3ncccc3F)[C@H]3OCCC[C@H]32)cn1` is -10.3%.

These data come from ChEMBL document CHEMBL3507680, “University of Dundee, Gates Library screen for HepG2 cell viability”.
